In brackets after ≈: the same amount, converted by molar mass.

1 compound from ChEMBL document CHEMBL1155554, “(2R,3R,7Z)-2-Aminotetradec-7-ene-1,3-diol, a new amino alcohol from the caribbean sponge Haliclona vansoesti” (J Nat Prod, 2000) can be followed below.

The nature of this series: Toxicity in brine shrimp. The format is organism-based. The note with it: artemia, in vivo; read-out: LD50 (the source's name).

In the case of `CCCCCC/C=C\CCC[C@@H](O)[C@H](N)CO`, the LC50 amounted to 9 µg/mL (≈ 37 µM).
